Here are results for 35 compounds from patent US11780839B2, “Compounds for treating Huntington's disease” (PTC THERAPEUTICS, INC., priority 2018, dated 2023).

In the experiment the test system is Endogenous Huntingtin Protein. Nature of the experiment: Endogenous Huntingtin Protein Assay (ELISA-based Meso Scale Discovery electrochemiluminescence). It is filed as cell-based. Conditions: MSD electrochemiluminescence, Table 1. The procedure, abridged:
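Huntingtin was captured overnight at 4 °C on plates coated with 1 μg/mL MW1 (polyQ-expanded) or MAB2166 antibody and BSA-blocked. Detection used a rabbit monoclonal and then a SULFO-TAG goat anti-rabbit antibody (0.25 μg/mL, 1 h each, room temperature). Signal was read by electrochemiluminescence.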
(In an ELISA, binding on a coated surface is turned into a signal by an enzyme label.)
In general, IC50 refers to the concentration needed to halve the response being measured. A higher IC50 goes with weaker potency in that assay. For `CC1(C)C[C@H](Nc2ncc(-c3ccc(-n4cnc(F)c4)cc3O)nn2)[C@H](F)C(C)(C)N1` [Cpd 240, 5-(4-fluoro-1H-imidazol-1-yl)-2-(3-{[(3S,4S)-3-fluoro-2,2,6,6-tetramethylpiperidin-4-yl]amino}-1,2,4-triazin-6-yl)phenol], the IC50 is no more than 100 nM.
With `CN1CCC2(CC1)CN(c1ncc(-c3ccc(-c4ccn(C)c(=O)c4)cc3O)nn1)C2` [Cpd 241, 4-{3-hydroxy-4-[3-(7-methyl-2,7-diazaspiro[3.5]nonan-2-yl)-1,2,4-triazin-6-yl]phenyl}-1-methylpyridin-2(1H)-one] the figure was no more than 100 nM; with `CN1CCC2(CC1)CN(c1ncc(-c3ccc(-c4cnn(C)n4)cc3O)nn1)C2` [Cpd 242, 2-[3-(7-methyl-2,7-diazaspiro[3.5]nonan-2-yl)-1,2,4-triazin-6-yl]-5-(2-methyl-2H-1,2,3-triazol-4-yl)phenol], no more than 100 nM; with `COc1cc(-c2ccc(-c3cnc(N4CC5(CCN(C)CC5)C4)nn3)c(O)c2)ncn1` [Cpd 243, 5-(6-methoxypyrimidin-4-yl)-2-[3-(7-methyl-2,7-diazaspiro[3.5]nonan-2-yl)-1,2,4-triazin-6-yl]phenol], no more than 100 nM.
Regarding `CN1CCC2(CC1)CN(c1ncc(-c3ccc(-c4ncccn4)cc3O)nn1)C2` [Cpd 244, 2-[3-(7-methyl-2,7-diazaspiro[3.5]nonan-2-yl)-1,2,4-triazin-6-yl]-5-(pyrimidin-2-yl)phenol], the IC50 lay within 3000 to 9000 nM.
The figure for `CN1CCC2(CC1)CN(c1ncc(-c3ccc(-c4c[nH]nn4)cc3O)nn1)C2` [Cpd 245, 2-[3-(7-methyl-2,7-diazaspiro[3.5]nonan-2-yl)-1,2,4-triazin-6-yl]-5-(1H-1,2,3-triazol-4-yl)phenol] is no more than 100 nM; for `Cn1cnc(-c2ccc(-c3cnc(N[C@H]4CC(C)(C)NC(C)(C)[C@H]4F)nn3)c(O)c2)cc1=O` [Cpd 246, 6-[4-(3-{[(3S,4S)-3-fluoro-2,2,6,6-tetramethylpiperidin-4-yl]amino}-1,2,4-triazin-6-yl)-3-hydroxyphenyl]-3-methylpyrimidin-4(3H)-one] it is no more than 100 nM; for `CC1(C)C[C@H](Nc2ncc(-c3ccc(-c4c[nH]nn4)cc3O)nn2)[C@H](F)C(C)(C)N1` [Cpd 247, 2-(3-{[(3S,4S)-3-fluoro-2,2,6,6-tetramethylpiperidin-4-yl]amino}-1,2,4-triazin-6-yl)-5-(1H-1,2,3-triazol-4-yl)phenol] it is no more than 100 nM.
With `CC1(C)C[C@H](Nc2ncc(-c3ccc(-c4cn5ccnc5cn4)cc3O)nn2)[C@H](F)C(C)(C)N1` [Cpd 248, 2-(3-{[(3S,4S)-3-fluoro-2,2,6,6-tetramethylpiperidin-4-yl]amino}-1,2,4-triazin-6-yl)-5-(imidazo[1,2-a]pyrazin-6-yl)phenol], the IC50 is no more than 100 nM.
Take `CC1(C)C[C@H](Nc2ncc(-c3ccc(-c4ccc5nccn5n4)cc3O)nn2)[C@H](F)C(C)(C)N1` [Cpd 249, 2-(3-{[(3S,4S)-3-fluoro-2,2,6,6-tetramethylpiperidin-4-yl]amino}-1,2,4-triazin-6-yl)-5-(imidazo[1,2-b]pyridazin-6-yl)phenol]: the IC50 was no more than 100 nM.
With `CC(C)(C)NC1CCN(c2ncc(-c3ccc(-c4ncco4)cc3O)nn2)C1` (centres unmarked) [Cpd 250, 2-{3-[3-(tert-butylamino)pyrrolidin-1-yl]-1,2,4-triazin-6-yl}-5-(1,3-oxazol-2-yl)phenol] the figure was 100 to 500 nM; with `CN1CCC2(CC1)CN(c1ncc(-c3ccc(-c4nnn(C)n4)cc3O)nn1)C2` [Cpd 251, 2-[3-(7-methyl-2,7-diazaspiro[3.5]nonan-2-yl)-1,2,4-triazin-6-yl]-5-(2-methyl-2H-tetrazol-5-yl)phenol], 100 to 500 nM; with `CN1CCC2(CC1)CN(c1ncc(-c3ccc(-c4ncco4)cc3O)nn1)C2` [Cpd 252, 2-[3-(7-methyl-2,7-diazaspiro[3.5]nonan-2-yl)-1,2,4-triazin-6-yl]-5-(1,3-oxazol-2-yl)phenol], greater than 500 nM.
Compound `Cn1ccc(-c2ccc(-c3cnc(NC4CC(C)(C)NC(C)(C)C4)nn3)c(O)c2)n1` [Cpd 253, 5-(1-methyl-1H-pyrazol-3-yl)-2-{3-[(2,2,6,6-tetramethylpiperidin-4-yl)amino]-1,2,4-triazin-6-yl}phenol] yielded an IC50 of no more than 100 nM.
In turn, `COc1cc(-c2ccc(-c3cnc(NC4CC(C)(C)NC(C)(C)C4)nn3)c(O)c2)ncn1` [Cpd 254, 5-(6-methoxypyrimidin-4-yl)-2-{3-[(2,2,6,6-tetramethylpiperidin-4-yl)amino]-1,2,4-triazin-6-yl}phenol] returned a half-inhibitory concentration (IC50) of no more than 100 nM.
Turning to `CN(c1cnc(-c2ccc(-n3nccn3)cc2O)nn1)C1CC(C)(C)NC(C)(C)C1` [Cpd 255, 2-{6-[methyl(2,2,6,6-tetramethylpiperidin-4-yl)amino]-1,2,4-triazin-3-yl}-5-(2H-1,2,3-triazol-2-yl)phenol], the IC50 is no more than 100 nM.
On to `CN1CCC2(CC1)CN(c1ncc(-c3ccc(-c4ccc5nccn5n4)cc3O)nn1)C2` [Cpd 256, 5-(imidazo[1,2-b]pyridazin-6-yl)-2-[3-(7-methyl-2,7-diazaspiro[3.5]nonan-2-yl)-1,2,4-triazin-6-yl]phenol], for which the IC50 was in the range of 100 to 500 nM.
The figure for `CN1CCC2(CC1)CN(c1ncc(-c3ccc(-c4cn5ccnc5cn4)cc3O)nn1)C2` [Cpd 257, 5-(imidazo[1,2-a]pyrazin-6-yl)-2-[3-(7-methyl-2,7-diazaspiro[3.5]nonan-2-yl)-1,2,4-triazin-6-yl]phenol] is 1000 to 3000 nM; for `CC(C)NC1CCN(c2ncc(-c3ccc(-c4c[nH]nn4)cc3O)nn2)C1` (centres unmarked) [Cpd 258, 2-(3-{3-[(propan-2-yl)amino]pyrrolidin-1-yl}-1,2,4-triazin-6-yl)-5-(1H-1,2,3-triazol-4-yl)phenol] it is no more than 100 nM; for `CC(C)NC1CCN(c2ncc(-c3ccc(-c4nnn(C)n4)cc3O)nn2)C1` (centres unmarked) [Cpd 259, 5-(2-methyl-2H-tetrazol-5-yl)-2-(3-{3-[(propan-2-yl)amino]pyrrolidin-1-yl}-1,2,4-triazin-6-yl)phenol] it is 100 to 500 nM.
Consider `Cn1ncc2cc(-c3ccc(-c4cnc(N[C@H]5CC(C)(C)NC(C)(C)[C@H]5F)nn4)c(O)c3)ccc21` [Cpd 260, 2-(3-{[(3S,4S)-3-fluoro-2,2,6,6-tetramethylpiperidin-4-yl]amino}-1,2,4-triazin-6-yl)-5-(1-methyl-1H-indazol-5-yl)phenol], for which the IC50 is no more than 100 nM.
`Cn1ccc(-c2ccc(-c3cnc(N[C@H]4CC(C)(C)NC(C)(C)[C@H]4F)nn3)c(O)c2)n1` [Cpd 261, 2-(3-{[(3S,4S)-3-fluoro-2,2,6,6-tetramethylpiperidin-4-yl]amino}-1,2,4-triazin-6-yl)-5-(1-methyl-1H-pyrazol-3-yl)phenol] displayed an IC50 of no more than 100 nM.
With `CC1CN(c2ncc(-c3ccc(-c4cn[nH]c4)cc3O)nn2)CC(C)N1` (centres unmarked) [Cpd 262, 2-[3-(3,5-dimethylpiperazin-1-yl)-1,2,4-triazin-6-yl]-5-(1H-pyrazol-4-yl)phenol] the figure was no more than 100 nM; with `CC1CN(c2ncc(-c3ccc(-c4ccn(C)n4)cc3O)nn2)CC(C)N1` (centres unmarked) [Cpd 263, 2-[3-(3,5-dimethylpiperazin-1-yl)-1,2,4-triazin-6-yl]-5-(1-methyl-1H-pyrazol-3-yl)phenol], 100 to 500 nM.
With `CC(C)NC1CCN(c2ncc(-c3ccc(-n4nccn4)cc3O)nn2)C1` (centres unmarked) [Cpd 264] the figure was 100 to 500 nM; with `COc1cc(-c2ccc(-c3cnc(N4CCC(NC(C)C)C4)nn3)c(O)c2)ncn1` (centres unmarked) [Cpd 265, 5-(6-methoxypyrimidin-4-yl)-2-(3-{3-[(propan-2-yl)amino]pyrrolidin-1-yl}-1,2,4-triazin-6-yl)phenol], no more than 100 nM; with `Cn1ncc(-c2ccc(-c3cnc(NC4CC(C)(C)NC(C)(C)C4)nn3)c(O)c2)n1` [Cpd 266, 5-(2-methyl-2H-1,2,3-triazol-4-yl)-2-{3-[(2,2,6,6-tetramethylpiperidin-4-yl)amino]-1,2,4-triazin-6-yl}phenol], no more than 100 nM.
In the case of `Cn1nnc(-c2ccc(-c3cnc(NC4CC(C)(C)NC(C)(C)C4)nn3)c(O)c2)n1` [Cpd 267, 5-(2-methyl-2H-tetrazol-5-yl)-2-{3-[(2,2,6,6-tetramethylpiperidin-4-yl)amino]-1,2,4-triazin-6-yl}phenol], the IC50 was no more than 100 nM.
The compound `CNC1CCN(c2ncc(-c3ccc(-c4cc(OC)ncn4)cc3O)nn2)C1` (centres unmarked) [Cpd 268, 5-(6-methoxypyrimidin-4-yl)-2-{3-[(methylamino)pyrrolidin-1-yl]-1,2,4-triazin-6-yl}phenol] had a half-maximal inhibitory concentration (IC50) of no more than 100 nM.
The figure for `CNC1CCN(c2ncc(-c3ccc(-c4ncns4)cc3O)nn2)C1` (centres unmarked) [Cpd 269, 2-{3-[3-(methylamino)pyrrolidin-1-yl]-1,2,4-triazin-6-yl}-5-(1,2,4-thiadiazol-5-yl)phenol] is 100 to 500 nM; for `CNC1CCN(c2ncc(-c3ccc(-c4ncccn4)cc3O)nn2)C1` (centres unmarked) [Cpd 270, 2-{3-[3-(methylamino)pyrrolidin-1-yl]-1,2,4-triazin-6-yl}-5-(pyrimidin-2-yl)phenol] it is 1000 to 3000 nM; for `CNC1CCN(c2ncc(-c3ccc(-c4cnc5c(cnn5C)c4)cc3O)nn2)C1` (centres unmarked) [Cpd 271, 2-{3-[3-(methylamino)pyrrolidin-1-yl]-1,2,4-triazin-6-yl}-5-(1-methyl-1H-pyrazolo[3,4-b]pyridin-5-yl)phenol] it is 100 to 500 nM.
For the compound `CN1CCC2(CC1)CN(c1ncc(-c3ccc(-c4ncns4)cc3O)nn1)C2` [Cpd 272, 2-[3-(7-methyl-2,7-diazaspiro[3.5]nonan-2-yl)-1,2,4-triazin-6-yl]-5-(1,2,4-thiadiazol-5-yl)phenol], the half-inhibitory concentration (IC50) is 100 to 500 nM.
Take `CC1(C)CC(Nc2ncc(-c3ccc(-n4ccnc4)cc3O)nn2)CC(C)(C)N1` [Cpd 273, 5-(1H-imidazol-1-yl)-2-{3-[(2,2,6,6-tetramethylpiperidin-4-yl)amino]-1,2,4-triazin-6-yl}phenol]: the IC50 was no more than 100 nM.
With `Cc1cn(-c2ccc(-c3cnc(NC4CC(C)(C)NC(C)(C)C4)nn3)c(O)c2)cn1` [Cpd 274, 5-(4-methyl-1H-imidazol-1-yl)-2-{3-[(2,2,6,6-tetramethylpiperidin-4-yl)amino]-1,2,4-triazin-6-yl}phenol] the figure was no more than 100 nM.
